Where two headings read alike, the source gives them in different places.
Legend:
[1] = test system: S. aureus strain NCTC 8325; test: minimal inhibiting concentration (MIC) in liquid bacterial culture; type: cell-based; settings: overnight 37° C., read-out: MIC
Procedure: (§1) 1 ml of an appropriate bacterial broth for the standard laboratory S. aureus strain NCTC 8325 were inoculated with 1*10^6 cfu. The cultures were kept overnight at 37° C. with gentle shaking 300 rpm in the presence of compounds AVU1Acid, AVU1AAc, AVU1AA or VK273 according to the present invention at different concentrations or dimethyl sulfoxide (DMSO) as control. Different beta-lactone virulence inhibitors were used as reference compounds. Following overnight incubation the optical density was measured in order to determine the minimal inhibiting concentration (MIC), which is defined as the lowest concentration of an antimicrobial that will inhibit the visible growth of a microorganism after overnight incubation. A 100 μl fraction of the supernatant of the grown bacterial cultures was subsequently analysed for the content of secreted bacterial hemolysins by addition of sheep red blood cells (10% v/v in PBS) and the measurement of the optical density at 410 nm after 30 min incubation at 37° C.

[2] = test system: S. aureus strain NCTC 8325; test: liquid culture-based hemolysis assay (secreted hemolysins, sheep red blood cells); type: cell-based
Procedure: The inhibition of hemolysin production has thus been further analysed in liquid bacterial cultures in order to evaluate their potential effects on bacterial growth simultaneously. Besides AVU1Acid, AVU1AAc, AVU1AA and VK273 the following further compounds were tested in liquid bacterial cultures:
as §1
The following results were obtained in further liquid culture-based hemolysis assays. Since the assays were performed at different times with different charges of sheep red blood cells AVU1 has been tested as a reference substance in each assay. The resulting EC50 values determined for the tested compounds have to be assessed with respect to the EC50 value determined for AVU1.

[3] = stability in mouse plasma; type: in vitro ADME; settings: 100 μM, 37° C., 0-240 min; FIG. 8, FIG. 10
Procedure: (§2) We investigated the stability of the compound herein in plasma preparations in comparison the beta-lactone compounds. Human plasma was obtained lyophilized from Sigma and reconstituted in sterile H2O. For human plasma 3.8% trisodium citrate was used as anticoagulant. Mouse plasma was prepared from whole blood samples from SKH-1 and Balb/C mice using Lithium-Heparin as anticoagulant and pooled from at least three different donor animals. Plasma samples were sterile filtered and stored in aliquots at −20° C. […] Test compounds were diluted 1:100 from a DMSO stock solution to a final concentration of 100 μM in both human and mouse plasma prewarmed for 10 min in an orbital shaker to 37° C. Test compounds were further incubated at 37° C. in the orbital shaker. Samples were withdrawn at time points 0, 5, 10, 20, 30, 60, 120, 240 min and immediately quenched by the addition of an equal volume of ice-cold acetonitrile. Subsequently, all samples were spun at maximum speed in a microcentrifuge to pellet precipitated proteins and samples were prepared for LC-MS analysis. Compound quantification occurred through analysis via the LTQ-FT high resolution mass-spectrometer and XCalibur-Software purchased at Thermo Scientific, Dreieich, D-63303 Germany.

[4] = stability in human plasma; type: in vitro ADME; settings: SKH-1 and Balb/C (mouse plasma); positive control at 100 μM in every experiment (human and mouse plasma), 37° C.
Procedure: as §2

CIpP = target: T1, CIpP (Staphylococcus aureus, UniProt Q2G036); test: competitive ABPP proteome labeling of living S. aureus cells with U1P probe; type: binding; settings: FIG. 4
T1 construct: Living S. aureus NCTC8325 cells from a fresh stationary liquid culture were aliquoted; endogenous in cells; host or cells: living S. aureus NCTC8325 cells
T1 sequence (Q2G036 1-195): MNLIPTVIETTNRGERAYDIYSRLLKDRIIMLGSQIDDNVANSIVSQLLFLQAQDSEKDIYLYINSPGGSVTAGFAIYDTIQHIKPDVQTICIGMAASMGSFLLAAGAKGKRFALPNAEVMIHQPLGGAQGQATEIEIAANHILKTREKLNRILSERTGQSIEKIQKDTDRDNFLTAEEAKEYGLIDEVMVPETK
Text: The compound U1P was used as a probe for activity-based labeling (activity-based protein profiling, ABPP) of the S. aureus NCTC 8325 proteome, as described in WO 2009/106211.
The U1P ABPP probe represents the lead structures of the known beta-lactone CIpP inhibitors modified with a terminal alkyne group. This compound is both active in hemolysis inhibition and CIpP inhibition. The terminal alkyne group comprised in UIP can be used for appending a fluorophore such as rhodamine-azide using click chemistry (1,3-dipolar Huisgen cycloaddition), which allows to scan the proteome of S. aureus for possible covalent binding partners. This compound consistently labels CIpP protease in a covalent manner in S. aureus proteomes.
The inventors used this compound in order to investigate whether compounds according to the present invention are able to reduce or suppress by non-covalent binding the covalent binding of the U1P ABPP probe to proteins of the S. aureus proteome. For a detailed description of the technique underlying these experiments see T. Böttcher, M. Pitscheider S. A. Sieber, Angew Chem Int Ed Engl. 2010, 2680.
Living S. aureus NCTC8325 cells from a fresh stationary liquid culture were aliquoted to equivalents of 1 ml of OD600=2. Bacterial cells were washed and resuspended in 100 μl PBS. Bacterial cell aliquots were then pre-incubated with the compounds AVU1AA or VK273 of the invention for 1 h at RT at final concentrations of 5 or 10 mM. Subsequently, the covalent ABPP probe UIP was added to a final concentration of 100 μM for 30 min at RT. After the competitive labeling procedure bacterial cells were washed twice, disrupted and labeled with rhodamine-azide using click chemistry. The labeled S. aureus proteome samples were separated by SDS-PAGE and visualized using fluorescence scanning.

[5] = target: T2, CIpP protease from S. aureus NCTC8325 (SaCIpP) (Staphylococcus aureus, UniProt Q2G036); test: in vitro inhibition of recombinant S. aureus CIpP with SLY-AMC substrate; type: biochemical; settings: inhibitor 2 mM (1000×), 30 min RT; SLY-AMC 200 μM; FIG. 3
T2 construct: made in house; host or cells: E. coli
T2 sequence (Q2G036 1-195): T1 sequence (Q2G036 1-195)
Procedure: The CIpP protease from S. aureus NCTC8325 (SaCIpP) was recombinantly overexpressed in E. coli and purified in order to investigate enzyme inhibition using SLY-AMC (N-succinyl-Leu-Tyr-7-amido-4-methylcoumarin) as fluorogenic model substrate.
Precisely, 9 μl of SaCIpP in buffered solution (final concentration 0.05 mg/ml, 2 μM; buffer: 100 mM NaCl, 20 mM Tris, pH 7.0) were incubated in the presence of 1 μl of various inhibitors (final concentration 2 mM=1000×) for 30 min at room temperature (RT). Subsequently, SLY-AMC was added to a final concentration of 200 μM and the increase in fluorescence due to enzymatic substrate proteolysis was measured using a TECAN GENios Pro™ plate reader at 380/440 nm (excitation/emission) at time intervals of 60 s over 40 min at 37° C. The enzymatic activity was determined as the slope of fluorescence (2=440 nm) over time. As positive controls, the in vivo active beta-lactone compound AVU1 (“U1”; WO 2009/106211) and the in vitro potent CIpP beta-lactone inhibitor D3 (WO 2009/106211) were employed.

## C=CCCCCCCC[C@H]1C(=O)O[C@@H]1CCc1ccccc1 [AVU1, reference compound]
[1]; Assay 2
  MIC: >1000 µM
[1]; Assay 3
  MIC: >1000 µM
[1]; Assay 4
  MIC: >1000 µM
[1]; Staphylococcus aureus, NCTC8325, Assay 1
  MIC: > 1000 µM
[2]; Staphylococcus aureus, NCTC8325, Erythrocyte, Assay 1, hemolysin production
  EC50: 142 µM
[2]; Staphylococcus aureus, NCTC8325, Erythrocyte, Assay 2, hemolysin production, assess relative to AVU1
  EC50: 10 to 50 µM
[2]; Staphylococcus aureus, NCTC8325, Erythrocyte, Assay 3, hemolysin production, assess relative to AVU1
  EC50: 50 to 100 µM
[2]; Staphylococcus aureus, NCTC8325, Erythrocyte, Assay 4, hemolysin production, assess relative to AVU1
  EC50: 31 µM
[3]
  stability in mouse plasma: degraded within a few minutes

## CCN(CC)CCOC(=O)c1ccc(N)cc1 [Procaine]
[4]
  half-life at 100 μM: 6 to 9 min

## C#CC[C@H]1C(=O)O[C@@H]1CCc1ccccc1 [U1P, reference compound]
CIpP; in the absence of competitive compounds
  labeling signal of probe: strong labeling signal with CIpP as the main target

## C=CCCCCCCCC(CO)C(O)CCc1ccccc1 (stereo not shown) [VK273, 2-(non-8-enyl)-5-phenylpentandiol-1,3]
[1]; Assay 1
  MIC: >1000 µM
[2]; Assay 1, hemolysin production
  EC50: 24.8 µM
[5]
  inhibition of SaCIpP: inhibit SaCIpP at an at least comparable level as the in vivo active beta-lactone reference compound AVU1
CIpP; bacterial cells incubated with compound alone
  labeling in the absence of U1P: did not result in any unspecific labeling
CIpP; pre-incubation 1 h at RT at 5 or 10 mM, U1P 100 μM 30 min
  target binding of U1P after pre-incubation with competitor: significantly reduced target binding of U1P

— patent US20140323457A1, “BETA-O/S/N FATTY ACID BASED COMPOUNDS AS ANTIBACTERIAL AND ANTIPROTOZOAL AGENTS” (LUDWIG-MAXIMILIANS-UNIVERSITÄT MÜNCHEN, priority 2011, published 2014)
